This passage reports IC50 and mTor kinase inhibition results from patent US8513221B2, “PI3K isoform selective inhibitors” (Xcovery Holding, LLC, priority 2008, dated 2013).

In one assay the target is T1, PI3Kα (Homo sapiens, UniProt P42336).
T1 construct: purchased Ambit Biosciences (San Diego, Calif., USA); host or cells: T7 phage in BL21-derived E. coli, or HEK-293
The experiment in a line: Ambit Biosciences kinase competition binding assay, PI3Kα. The conditions noted are these: read-out: inhibitory activity against other isoforms: PI3Kα. The procedure:
(§1) Assays were performed as described in Fabian et al. (2005) Nature Biotechnology, vol. 23, p. 329 and in Karaman et al. (2008) Nature Biotechnology, vol. 26, p. 127.
(§2) Kinase assays. For most assays, kinase-tagged T7 phage strains were grown in parallel in 24-well blocks in an E. coli host derived from the BL21 strain. E. coli were grown to log-phase and infected with T7 phage from a frozen stock (multiplicity of infection ˜0.1) and incubated with shaking at 32° C. until lysis (˜90 minutes). The lysates were centrifuged (6,000×g) and filtered ([…]) to remove cell debris. The remaining kinases were produced in HEK-293 cells and subsequently tagged with DNA for qPCR detection. Streptavidin-coated magnetic beads were treated with biotinylated small molecule ligands for 30 minutes at room temperature to generate affinity resins for kinase assays. The liganded beads were blocked with excess biotin and washed with blocking buffer (SeaBlock (Pierce), 1% BSA, 0.05% Tween 20, 1 mM DTT) to remove unbound ligand and to reduce non-specific phage binding. Binding reactions were assembled by combining kinases, liganded affinity beads, and test compounds in 1× binding buffer (20% SeaBlock, 0.17× PBS, 0.05% Tween 20, 6 mM DTT). Test compounds were prepared as 40× stocks in 100% DMSO and directly diluted into the assay. […] The kinase concentration in the eluates was measured by qPCR. […]

A further assay deals with T2, PI3Kγ (Homo sapiens, UniProt P48736).
T2 construct: purchased Ambit Biosciences (San Diego, Calif., USA); host or cells: T7 phage in BL21-derived E. coli, or HEK-293
T2 sequence (P48736 whole entry): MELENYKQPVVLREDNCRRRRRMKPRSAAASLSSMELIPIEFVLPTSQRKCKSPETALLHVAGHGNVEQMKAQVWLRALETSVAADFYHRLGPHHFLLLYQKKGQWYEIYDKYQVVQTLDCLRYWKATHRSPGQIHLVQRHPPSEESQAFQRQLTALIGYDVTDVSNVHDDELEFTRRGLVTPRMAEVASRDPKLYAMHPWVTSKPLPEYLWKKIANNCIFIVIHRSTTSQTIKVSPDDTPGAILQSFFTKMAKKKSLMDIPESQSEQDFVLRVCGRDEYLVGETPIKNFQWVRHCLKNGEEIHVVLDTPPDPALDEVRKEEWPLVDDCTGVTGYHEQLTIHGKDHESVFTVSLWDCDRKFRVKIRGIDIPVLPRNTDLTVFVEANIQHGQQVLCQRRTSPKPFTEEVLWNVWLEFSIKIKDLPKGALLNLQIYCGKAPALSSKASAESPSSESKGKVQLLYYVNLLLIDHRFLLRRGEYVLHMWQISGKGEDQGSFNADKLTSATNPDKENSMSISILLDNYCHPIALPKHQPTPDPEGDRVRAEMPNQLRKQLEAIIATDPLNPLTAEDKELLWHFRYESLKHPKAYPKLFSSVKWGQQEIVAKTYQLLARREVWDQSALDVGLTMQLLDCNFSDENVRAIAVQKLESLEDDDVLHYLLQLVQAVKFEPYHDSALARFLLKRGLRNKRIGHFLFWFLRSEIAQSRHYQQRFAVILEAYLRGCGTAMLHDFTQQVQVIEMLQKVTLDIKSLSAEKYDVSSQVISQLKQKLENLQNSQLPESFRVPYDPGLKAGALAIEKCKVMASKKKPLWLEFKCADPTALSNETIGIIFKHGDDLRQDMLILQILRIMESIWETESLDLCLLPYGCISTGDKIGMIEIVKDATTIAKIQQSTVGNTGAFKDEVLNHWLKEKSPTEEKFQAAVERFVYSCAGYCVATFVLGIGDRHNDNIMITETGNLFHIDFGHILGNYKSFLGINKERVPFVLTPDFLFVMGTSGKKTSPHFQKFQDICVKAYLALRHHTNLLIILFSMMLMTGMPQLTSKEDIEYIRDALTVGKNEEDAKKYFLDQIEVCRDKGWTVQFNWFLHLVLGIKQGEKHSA
Put plainly: Ambit Biosciences kinase competition binding assay, PI3Kγ. The conditions noted are these: read-out: inhibitory activity against other isoforms: PI3Kγ. As to the method:
as §1, §2

A further assay has as its target T3, PI3Kβ (Homo sapiens, UniProt P42338).
T3 construct: purchased Ambit Biosciences (San Diego, Calif., USA); host or cells: T7 phage in BL21-derived E. coli, or HEK-293
Put plainly: Ambit Biosciences kinase competition binding assay, PI3Kβ. The conditions noted are these: read-out: inhibitory activity against other isoforms: PI3Kβ. The procedure:
as §1, §2

A further assay concerns the target T4, PI3Kδ (Homo sapiens, UniProt O00329).
T4 construct: purchased Ambit Biosciences (San Diego, Calif., USA); host or cells: T7 phage in BL21-derived E. coli, or HEK-293
T4 sequence (O00329 1-1044): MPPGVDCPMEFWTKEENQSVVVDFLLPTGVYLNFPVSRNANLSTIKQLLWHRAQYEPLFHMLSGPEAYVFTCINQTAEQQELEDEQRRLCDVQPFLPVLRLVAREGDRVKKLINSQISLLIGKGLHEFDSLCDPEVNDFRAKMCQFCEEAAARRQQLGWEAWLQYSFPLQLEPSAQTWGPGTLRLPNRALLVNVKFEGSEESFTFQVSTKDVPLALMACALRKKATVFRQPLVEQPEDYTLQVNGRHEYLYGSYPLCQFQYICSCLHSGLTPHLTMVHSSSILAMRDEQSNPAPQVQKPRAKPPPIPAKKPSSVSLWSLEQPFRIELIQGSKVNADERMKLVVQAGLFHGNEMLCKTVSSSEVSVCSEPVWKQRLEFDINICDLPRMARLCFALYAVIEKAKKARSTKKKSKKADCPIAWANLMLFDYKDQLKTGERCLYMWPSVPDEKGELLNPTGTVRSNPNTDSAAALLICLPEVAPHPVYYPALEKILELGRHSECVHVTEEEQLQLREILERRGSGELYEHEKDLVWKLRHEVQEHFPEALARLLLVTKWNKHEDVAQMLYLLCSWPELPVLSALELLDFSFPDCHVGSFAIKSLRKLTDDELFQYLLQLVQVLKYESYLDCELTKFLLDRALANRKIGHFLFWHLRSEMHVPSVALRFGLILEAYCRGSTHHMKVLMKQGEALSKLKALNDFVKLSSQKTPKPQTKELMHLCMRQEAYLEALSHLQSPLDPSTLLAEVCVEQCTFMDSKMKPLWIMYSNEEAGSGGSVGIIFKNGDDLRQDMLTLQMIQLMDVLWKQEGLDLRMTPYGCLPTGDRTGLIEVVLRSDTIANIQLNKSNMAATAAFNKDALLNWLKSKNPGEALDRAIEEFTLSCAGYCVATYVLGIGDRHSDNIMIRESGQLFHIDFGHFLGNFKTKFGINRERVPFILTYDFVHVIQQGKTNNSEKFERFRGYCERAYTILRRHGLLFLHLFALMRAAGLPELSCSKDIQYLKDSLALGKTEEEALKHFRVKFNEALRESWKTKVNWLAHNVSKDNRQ
Put plainly: Ambit Biosciences kinase competition binding assay, PI3Kδ. As to the method:
Kinase assays. For most assays, kinase-tagged T7 phage strains were grown in parallel in 24-well blocks in an E. coli host derived from the BL21 strain. E. coli were grown to log-phase and infected with T7 phage from a frozen stock (multiplicity of infection ˜0.1) and incubated with shaking at 32° C. until lysis (˜90 minutes). The lysates were centrifuged (6,000×g) and filtered ([…]) to remove cell debris. The remaining kinases were produced in HEK-293 cells and subsequently tagged with DNA for qPCR detection. […] The liganded beads were blocked with excess biotin and washed with blocking buffer (SeaBlock (Pierce), 1% BSA, 0.05% Tween 20, 1 mM DTT) to remove unbound ligand and to reduce non-specific phage binding. […] Test compounds were prepared as 40× stocks in 100% DMSO and directly diluted into the assay. All reactions were performed in polypropylene 384-well plates in a final volume of 0.04 ml. […] The kinase concentration in the eluates was measured by qPCR.
Compounds were tested using the above assay at Ambit Biosciences (San Diego, Calif., USA).

In a further assay the target is T5, mTor (Homo sapiens, UniProt P42345).
T5 construct: purchased Invitrogen Corp. (Madison, Wis., USA)
The experiment in a line: Z′-LYTE biochemical assay for mTor. As to conditions: at up to 1 μM. As to the method: The Z′-LYTE® biochemical assay for mTor The mTor kinase activity was assessed using the Z′-LYTE® biochemical assay of Invitrogen Corp. (Madison, Wis., USA).

Where two headings read alike, the source gives them in different places. Where only a bound is given, the exact number is not on record here.

T1 sequence (P42336 whole entry): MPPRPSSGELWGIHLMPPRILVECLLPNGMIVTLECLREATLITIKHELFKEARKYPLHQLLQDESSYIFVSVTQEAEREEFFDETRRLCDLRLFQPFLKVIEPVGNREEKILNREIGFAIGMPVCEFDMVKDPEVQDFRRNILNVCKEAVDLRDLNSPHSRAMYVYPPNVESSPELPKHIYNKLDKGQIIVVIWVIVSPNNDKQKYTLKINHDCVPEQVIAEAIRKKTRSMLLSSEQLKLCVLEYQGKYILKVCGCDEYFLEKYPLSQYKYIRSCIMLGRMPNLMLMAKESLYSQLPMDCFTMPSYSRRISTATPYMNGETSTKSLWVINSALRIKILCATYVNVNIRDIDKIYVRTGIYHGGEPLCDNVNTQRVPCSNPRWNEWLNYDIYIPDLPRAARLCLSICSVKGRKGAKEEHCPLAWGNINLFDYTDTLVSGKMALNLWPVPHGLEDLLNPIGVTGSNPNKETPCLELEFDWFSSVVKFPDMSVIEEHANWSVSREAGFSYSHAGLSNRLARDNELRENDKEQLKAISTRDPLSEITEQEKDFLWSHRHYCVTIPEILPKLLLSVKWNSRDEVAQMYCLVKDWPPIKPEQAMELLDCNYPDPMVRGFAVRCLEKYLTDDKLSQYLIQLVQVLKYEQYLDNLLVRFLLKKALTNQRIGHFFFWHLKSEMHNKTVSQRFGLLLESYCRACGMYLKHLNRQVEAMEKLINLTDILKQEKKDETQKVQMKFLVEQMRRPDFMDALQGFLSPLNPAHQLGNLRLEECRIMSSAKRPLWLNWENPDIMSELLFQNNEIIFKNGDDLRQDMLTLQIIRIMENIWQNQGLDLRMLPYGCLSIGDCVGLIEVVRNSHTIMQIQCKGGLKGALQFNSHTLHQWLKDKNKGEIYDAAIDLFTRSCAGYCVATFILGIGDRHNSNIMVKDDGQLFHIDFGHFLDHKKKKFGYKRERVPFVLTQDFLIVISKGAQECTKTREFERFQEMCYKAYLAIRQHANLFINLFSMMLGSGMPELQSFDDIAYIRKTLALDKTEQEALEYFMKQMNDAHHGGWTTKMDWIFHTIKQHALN
T3 sequence (P42338 whole entry): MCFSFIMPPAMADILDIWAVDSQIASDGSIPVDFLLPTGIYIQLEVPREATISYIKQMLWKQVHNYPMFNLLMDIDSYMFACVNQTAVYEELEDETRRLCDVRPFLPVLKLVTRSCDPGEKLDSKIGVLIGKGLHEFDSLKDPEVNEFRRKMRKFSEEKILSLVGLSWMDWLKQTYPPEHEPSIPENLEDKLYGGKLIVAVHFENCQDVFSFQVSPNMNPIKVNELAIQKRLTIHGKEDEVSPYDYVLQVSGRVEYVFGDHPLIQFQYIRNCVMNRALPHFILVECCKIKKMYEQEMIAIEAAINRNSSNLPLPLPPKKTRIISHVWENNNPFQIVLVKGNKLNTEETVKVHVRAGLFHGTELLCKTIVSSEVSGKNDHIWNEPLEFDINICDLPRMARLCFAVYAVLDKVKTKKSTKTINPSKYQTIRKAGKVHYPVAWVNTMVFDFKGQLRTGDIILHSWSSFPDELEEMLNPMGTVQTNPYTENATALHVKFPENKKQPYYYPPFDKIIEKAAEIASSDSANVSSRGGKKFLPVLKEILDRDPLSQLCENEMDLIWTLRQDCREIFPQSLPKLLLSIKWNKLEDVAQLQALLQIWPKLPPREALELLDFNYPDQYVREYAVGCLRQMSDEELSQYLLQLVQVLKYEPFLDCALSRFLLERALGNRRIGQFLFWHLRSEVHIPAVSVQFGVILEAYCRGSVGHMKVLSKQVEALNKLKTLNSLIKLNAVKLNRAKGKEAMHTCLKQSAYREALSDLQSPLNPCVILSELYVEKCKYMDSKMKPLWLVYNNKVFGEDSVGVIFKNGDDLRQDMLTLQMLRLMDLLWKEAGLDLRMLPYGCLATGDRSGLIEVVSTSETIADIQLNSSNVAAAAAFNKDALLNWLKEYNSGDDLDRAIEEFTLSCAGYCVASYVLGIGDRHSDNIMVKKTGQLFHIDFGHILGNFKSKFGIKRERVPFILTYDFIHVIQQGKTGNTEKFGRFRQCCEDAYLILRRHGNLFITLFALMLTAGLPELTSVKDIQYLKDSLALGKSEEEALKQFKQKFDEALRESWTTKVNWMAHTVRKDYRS

As to `CS(=O)(=O)N1CCN(CCn2cnc3c(-n4c(C(F)F)nc5ccccc54)nc(N4CCOCC4)nc32)CC1` [Example 14, 6-(2-difluoromethyl-benzoimidazol-1-yl)-9-[2-(4-methanesulfonyl-piperazin-1-yl)-ethyl]-2-morpholin-4-yl-9H-purine], the IC50 is more than 100 nM on PI3Kα, more than 100 nM on PI3Kγ, more than 100 nM on PI3Kβ and less than 30 nM at PI3Kδ (read-out: inhibition against PI3Kδ (IC50)).

For `OCCn1cnc2c(-n3c(C(F)F)nc4ccccc43)nc(N3CCOCC3)nc21` [Example 28, 2-{6-[2-(difluoromethyl)benzimidazol-1-yl]-2-morpholin-4-ylpurin-9-yl}ethan-1-ol], the IC50 is more than 100 nM on PI3Kα, more than 100 nM on PI3Kγ, more than 100 nM on PI3Kβ and less than 30 nM on PI3Kδ. Besides, the mTor kinase inhibition result on mTor was “did not significantly inhibit”.
